Consider 12 compounds from ChEMBL document CHEMBL4196007, “Design, synthesis and biological evaluation of novel 4-aminoquinazolines as dual target inhibitors of EGFR-PI3Kα” (Eur J Med Chem, 2018).

Each structure is given as a SMILES string.

Holding throughout (format): functional, cell-based
One assay concerns SK-HEP1. Description: Cytotoxicity against human SKHEP1 cells after 72 hrs by SRB assay. To be noted: SK-HEP1, 72 h.
Another assay has as its system A549. The assay can be described thus: Cytotoxicity against human A549 cells after 72 hrs by SRB assay. Particulars: A549, 72 h. Background: The SRB assay estimates cell density from bound dye.
For the next assay, the system named is MCF7. The assay can be described thus: Cytotoxicity against human MCF7 cells after 72 hrs by SRB assay. To be noted: MCF7, 72 h.
The next assay deals with HCT-116. Description: Cytotoxicity against human HCT116 cells after 72 hrs by SRB assay. To be noted: HCT-116, 72 h.
Another assay has as its system SNU-638. Description: Cytotoxicity against human SNU638 cells after 72 hrs by SRB assay. To be noted: SNU-638, 72 h.
The test system of a further assay is BT-549. The assay can be described thus: Cytotoxicity against human BT549 cells after 72 hrs by SRB assay. To be noted: BT-549, 72 h.

By IC50 is commonly meant the concentration at which inhibition is half-maximal. A high value points to weaker potency in that assay. Take `CCCCS(=O)(=O)Nc1cc(-c2ccc3ncnc(Nc4cccc(C(=O)OCC)c4)c3c2)cnc1OC`: the IC50 in the assay with SK-HEP1 is 21600 nM; in the assay on A549 it was 42.3 µM; in the assay on MCF7, 36.4 µM; in the assay on HCT-116, 26.7 µM; in the assay on SNU-638, 25200 nM; with BT-549 it was 37200 nM.
For the compound `Cn1c(=O)n(-c2ccc(C(C)(C)C#N)cc2)c2c3cc(-c4cnc5ccccc5c4)ccc3ncc21` [DACTOLISIB], the half-maximal inhibitory concentration (IC50) in the assay with SK-HEP1 was 1820 nM; with A549, 0.62 µM; in the assay with MCF7, 1.33 µM; in the assay on HCT-116 it was 0.84 µM; with SNU-638, 1240 nM; with BT-549, 740 nM.
For the compound `COC(=O)c1cccc(Nc2ncnc3ccc(-c4cnc(OC)c(NS(=O)(=O)c5ccc(F)cc5F)c4)cc23)c1`, the IC50 in the assay with SK-HEP1 is 2800 nM; in the assay on A549 it was 10.5 µM; with MCF7, 22.4 µM; with HCT-116, 1.5 µM; in the assay on SNU-638, 400 nM; in the assay on BT-549, 12700 nM.
On to `CCS(=O)(=O)Nc1cc(-c2ccc3ncnc(Nc4ccc(OC)c(OC)c4)c3c2)cnc1OC`, for which the IC50 in the assay with SK-HEP1 is 2840 nM; in the assay with A549, 5.82 µM; in the assay on MCF7 it was 2.43 µM; with HCT-116, 4.36 µM; in the assay with SNU-638, 1680 nM; in the assay with BT-549, 2590 nM.
As for `CCS(=O)(=O)Nc1cc(-c2ccc3ncnc(Nc4ccc(Cl)c(C(=O)OC)c4)c3c2)cnc1OC`, the concentration for half-maximal inhibition (IC50) is 7060 nM in the assay with SK-HEP1; 2.13 µM with A549; 1.43 µM with MCF7; 3.13 µM in the assay with HCT-116; 2200 nM in the assay on SNU-638; 2360 nM in the assay on BT-549.
Regarding `CCS(=O)(=O)Nc1cc(-c2ccc3ncnc(Nc4ccc(OCc5ccc(F)cc5)c(Cl)c4)c3c2)cnc1OC`, the IC50 was determined as 1950 nM in the assay with SK-HEP1; 31.3 µM in the assay on A549; 28.4 µM with MCF7; 5.41 µM in the assay on HCT-116; 2360 nM in the assay on SNU-638; 14600 nM with BT-549.
For `CCS(=O)(=O)Nc1cc(-c2ccc3ncnc(Nc4ccc(OC)cc4)c3c2)cnc1OC`, the half-inhibitory concentration (IC50) in the assay on SK-HEP1 is 1610 nM; with A549, 3.58 µM; in the assay with MCF7, 1.79 µM; with HCT-116 it was 3.49 µM; in the assay with SNU-638 it was 3970 nM; in the assay on BT-549, 1880 nM.
For `CCS(=O)(=O)Nc1cc(-c2ccc3ncnc(Nc4ccc(OC(F)(F)F)cc4)c3c2)cnc1OC`, the IC50 is 6140 nM with SK-HEP1; 25.4 µM in the assay on A549; 23.7 µM with MCF7; 16.6 µM in the assay on HCT-116; 22400 nM with SNU-638; 8240 nM with BT-549.
As for `CCS(=O)(=O)Nc1cc(-c2ccc3ncnc(Nc4ccc(C(=O)OC)c(OC)c4)c3c2)cnc1OC`, the IC50 in the assay with SK-HEP1 came to 830 nM; in the assay with A549, 3.35 µM; in the assay with MCF7 it was 10.9 µM; with HCT-116, 1.69 µM; in the assay on SNU-638 it was 3440 nM; with BT-549 it was 3760 nM.
As for `CCS(=O)(=O)Nc1cc(-c2ccc3ncnc(Nc4ccc(OC)c(Cl)c4)c3c2)cnc1OC`, the IC50 in the assay on SK-HEP1 is 2810 nM; with A549, 5.24 µM; with MCF7, 3.32 µM; in the assay with HCT-116, 5.62 µM; in the assay on SNU-638, 3620 nM; in the assay on BT-549 it was 2470 nM.
For `CCS(=O)(=O)Nc1cc(-c2ccc3ncnc(Nc4ccc(F)cc4F)c3c2)cnc1OC`, the IC50 with SK-HEP1 worked out at 2490 nM; with A549 it was 4.71 µM; with MCF7, 1.61 µM; in the assay with HCT-116 it was 4.01 µM; in the assay with SNU-638, 2050 nM; with BT-549 it was 2480 nM.
Turning to `CCS(=O)(=O)Nc1cc(-c2ccc3ncnc(Nc4cccc(F)c4)c3c2)cnc1OC`, the IC50 with SK-HEP1 was 1850 nM; in the assay on A549, 9.94 µM; with MCF7 it was 8.02 µM; with HCT-116, 3.94 µM; in the assay with SNU-638, 2760 nM; in the assay with BT-549, 2760 nM.
